For orientation: IC50 means the concentration that gives 50% inhibition.

The target in one test is T1, Met kinase domain (GST fusion protein) (Homo sapiens, UniProt P08581).
T1 construct: Purified GST fusion protein containing the Met kinase domain
T1 sequence (P08581 1078-1345 limits assumed): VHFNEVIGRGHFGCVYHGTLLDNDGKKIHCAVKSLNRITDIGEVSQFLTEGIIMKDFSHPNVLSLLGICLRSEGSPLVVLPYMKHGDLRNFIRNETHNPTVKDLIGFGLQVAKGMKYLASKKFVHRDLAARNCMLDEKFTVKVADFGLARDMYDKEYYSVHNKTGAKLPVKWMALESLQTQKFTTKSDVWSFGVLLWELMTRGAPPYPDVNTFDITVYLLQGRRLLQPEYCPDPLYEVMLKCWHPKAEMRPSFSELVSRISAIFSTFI
Kind of test: Met transphosphorylation assay (ELISA, poly(glu-tyr) substrate).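 Also: Cell-free ELISA with plate-bound poly(Glu:Tyr 4:1) phosphorylated by GST-fused Met kinase domain plus ATP and Mn2+, phosphotyrosine detected by anti-phosphotyrosine antibody with HRP and ABTS read-out.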 It counts as biochemical. The settings on record: Table 2; read-out: Met IC50.
Description: General procedure is as follows: a compound is introduced to cells expressing the test kinase, either naturally or recombinantly, for a selected period of time after which, if the test kinase is a receptor, a ligand known to activate the receptor is added. The cells are lysed and the lysate is transferred to the wells of an ELISA plate previously coated with a specific antibody recognizing the substrate of the enzymatic phosphorylation reaction. Non-substrate components of the cell lysate are washed away and the amount of phosphorylation on the substrate is detected with an antibody specifically recognizing phosphotyrosine compared with control cells that were not contacted with a test compound.
Met Transphosphorylation Assay
This assay is used to measure phosphotyrosine levels on a poly(glutamic acid:tyrosine, 4:1) substrate as a means for identifying agonists/antagonists of met transphosphorylation of the substrate.
PBS, Gibco Catalog # 450-1300EB • 4. 50 mM HEPES • 5. […] Purified GST fusion protein containing the Met kinase domain, SUGEN, Inc. • 7. TBST Buffer. • 8. 10% aqueous (MilliQue H2O) DMSO. • 9. […] 2× Kinase Dilution Buffer: for 100 mL, mix 10 mL 1M HEPESat pH 7.5 with 0.4 mL 5% BSA/PBS, 0.2 mL 0.1 M sodium orthovanadate and 1 mL 5M sodium chloride in 88.4 mL dH2O. • 11. 4× ATP Reaction Mixture: for 10 mL, mix 0.4 mL 1 M manganese chloride and 0.02 mL 0.1 M ATP in 9.56 mL dH2O. • 12. 4× Negative Controls Mixture: for 10 mL, mix 0.4 mL 1 M manganese chloride in 9.6 mL dH2O. • 13. […] 500 mM EDTA. • 15. Antibody Dilution Buffer: for 100 mL, mix 10 mL 5% BSA/PBS, 0.5 mL 5% Carnation® Instant Milk in PBS and 0.1 mL 0.1 M sodium orthovanadate in 88.4 mL TBST. • 16. Rabbit polyclonal antophosphotyrosine antibody, SUGEN, Inc. • 17. Goat anti-rabbit horseradish peroxidase conjugated antibody, Biosource, Inc. • 18. ABTS Solution: for 1 L, mix 19.21 g citric acid, 35.49 g Na2HPO4 and 500 mg ABTS with sufficient dH2O to make 1 L. • 19. ABTS/H2O2: mix 15 mL ABST solution with 2μL H2O2 five minutes before use. • 20. 0.2 M HCl Procedure: • 1. Coat ELISA plates with 2 μg Poly(Glu-Tyr) in 100 μL PBS, hold-overnight at 4° C. • 2. Block plate with 150 μL of 5% BSA/PBS for 60 min. • 3. Wash plate twice with PBS then once with 50 mM Hepes buffer pH 7.4. • 4. Add 50 μl of the diluted kinase to all wells. (Purified kinase is diluted with Kinase Dilution Buffer. Final concentration should be 10 ng/well.) • 5. Add 25 μL of the test compound (in 4% DMSO) or DMSO alone (4% in dH2O) for controls to plate. • 6. Incubate the kinase/compound mixture for 15 minutes. • 7. Add 25 μL of 40 mM MnCl2 to the negative control wells. • 8. Add 25 μL ATP/MnCl2 mixture to the all other wells (except the negative controls). Incubate for 5 min. • 9. Add 25 μL 500 mM EDTA to stop reaction. • 10. Wash plate 3× with TBST. • 11. Add 100 μL rabbit polyclonal anti-Ptyr diluted 1:10,000 in Antibody Dilution Buffer to each well. Incubate, with shaking, at room temperature for one hour. • 12. Wash plate 3× with TBST. • 13. […] Add 100 μL per well and incubate at room temperature, with shaking, for one hour. • 14. Wash plate 1× with PBS. • 15. Add 100 μl of ABTS/H2O2 solution to each well. • 16. If necessary, stop the development reaction with the addition of 100 μl of 0.2M HCl per well. • 17.
Turning to `Nc1ncc(-c2ccc(C(=O)NCCN3CCCC3)cc2)cc1OCc1c(F)ccc(F)c1Cl` [Example I-221], the IC50 is 0.18 µM.
Regarding `CC(Oc1cc(-c2cccc(C(=O)N3CC[C@H](N)C3)c2)cnc1N)c1c(Cl)ccc(F)c1Cl` (stereo partly drawn) [Example I-316, (3-{6-Amino-5-[1-(2,6-dichloro-3-fluoro-phenyl)-ethoxy]-pyridin-3-yl}-phenyl)-((S)-3-amino-pyrrolidin-1-yl)-methanone], the IC50 amounted to 0.048 µM.
With `CC(Oc1cc(-c2cccc(OCCN3CCOCC3)c2)cnc1N)c1c(F)ccc(F)c1Cl` (stereo not drawn) [Example I-354, 3-[1-(2-Chloro-3,6-difluoro-phenyl)-ethoxy]-5-[3-(2-morpholin-4-yl-ethoxy)-phenyl]-pyridin-2-ylamine], the IC50 was determined as 0.22 µM.
The same measure, in the same setting: with `CC(Oc1cc(-c2cccc(C(=O)NCCN3CCCC3)c2)cnc1N)c1c(Cl)ccc(F)c1Cl` (stereo not drawn) [Example I-319, 3-{6-Amino-5-[1-(2,6-dichloro-3-fluoro-phenyl)-ethoxy]-pyridin-3-yl}-N-(2-pyrrolidin-1-yl-ethyl)-benzamide] the figure was 0.1 µM; with `Nc1ncc(-c2ccc(NS(=O)(=O)CCN3CCC[C@H]3CO)cc2)cc1OCc1c(F)ccc(F)c1Cl` [Example I-253, 2-[(2S)-2-Hydroxymethyl-pyrrolidin-1-yl]-ethanesulfonic acid {4-[6-amino-5-(2-chloro-3,6-difluoro-benzyloxy)-pyridin-3-yl]-phenyl}-amide], 0.097 µM.

Staying with this test, now noted: plain numbers in column Met IC50 (μM) of Table 2; read-out: Met IC50.
In the case of `Nc1ccc(-c2cnc(N)c(OCc3ccccc3)c2)cn1` [Example I-491, 5-Benzyloxy-[3,3′]bipyridinyl-6,6′-diamine], the IC50 was more than 20 µM.
Turning to `CC(Oc1cc(OCCc2ccccc2)cnc1N)c1c(F)ccc(F)c1Cl` (stereo not drawn) [Example I-538, 3-[1-(2-Chloro-3,6-difluoro-phenyl)-ethoxy]-5-phenethyloxy-pyridin-2-ylamine], the IC50 amounted to 2.8 µM.
Consider `C[C@@H](Oc1cc(-c2ccc(NS(C)(=O)=O)cc2)cnc1N)c1c(F)ccc(F)c1Cl` [Example I-368, N-(4-{6-Amino-5-[(R)-1-(2-chloro-3,6-difluoro-phenyl)-ethoxy]-pyridin-3-yl}-phenyl)-methanesulfonamide], for which the IC50 was determined as 0.066 µM.
On to `CC(Oc1cc(-c2ccc(NC(=O)NCCN3CCOCC3)cc2)cnc1N)c1c(F)ccc(F)c1Cl` (stereo not drawn) [Example I-384, 1-(4-{6-Amino-5-[1-(2-chloro-3,6-difluoro-phenyl)-ethoxy]-pyridin-3-yl}-phenyl)-3-(2-morpholin-4-yl-ethyl)-urea], for which the IC50 stood at 0.13 µM.

Staying with this test, now noted: read-out: Met IC50.
Regarding `Nc1ncc(Br)cc1OCc1c(F)ccc(F)c1Cl` [I(l), 5-Bromo-3-(2-chloro-3.6-difluoro-benzyloxy)-pyridin-2-ylamine], the IC50 is 5.3 µM.
Turning to `CCOC(=O)c1cc2cc(-c3cnc(N)c(OCc4c(Cl)cccc4Cl)c3)ccc2[nH]1` [Example I-76, 5-[6-Amino-5-(2,6-dichloro-benzyloxy)-pyridin-3-yl]-1H-indole-2-carboxylic acid ethyl ester], the IC50 is more than 20 µM.
On the same count and under the same terms, with `N#Cc1ccccc1COc1cc(-c2ccc(C(=O)NCCN3CCOCC3)cc2)cnc1N` [Example I-169, 4-[6-Amino-5-(2-cyano-benzyloxy)-pyridin-3-yl]-N-(2-morpholin-4-yl-ethyl)-benzamide] the figure was 8.6 µM; with `CC(C)C(Oc1nc(Br)cnc1N)c1c(F)ccc(F)c1Cl` (stereo not drawn) [II(d), 5-Bromo-3-[1-(2-chloro-3,6-difluoro-phenyl)-2-methyl-propoxy]-pyrazin-2-ylamine], 18.1 µM.
`N#Cc1ccccc1COc1cc(-c2ccc(C(=O)NCCCN3CCOCC3)cc2)cnc1N` [Example I-170, 4-[6-Amino-5-(2-cyano-benzyloxy)-pyridin-3-yl]-N-(3-morpholin-4-yl-propyl)-benzamide]: the IC50 turned out to be 17.3 µM.
Consider `Nc1ncc(-c2ccc(NS(=O)(=O)CCN3CCCC3)cc2)nc1OCc1c(F)ccc(F)c1Cl` [II-12, 2-Pyrrolidin-1-yl-ethanesulfonic acid {4-[5-amino-6-(2-chloro-3,6-difluoro-benzyloxy)-pyrazin-2-yl]-phenyl}-amide], for which the IC50 is 0.58 µM.
Same read-out and setting: with `Nc1ncc(-c2cccc(OCCN3CCOCC3)c2)nc1OCc1c(Cl)cccc1Cl` [II-3, 3-(2,6-Dichloro-benzyloxy)-5-[3-(2-morpholin-4-yl-ethoxy)-phenyl]-pyrazin-2-ylamine] the figure was 0.74 µM; with `Nc1ncc(-c2ccc(C(=O)N3CCC[C@H]3CN3CC[C@@H](O)C3)cc2)cc1OCc1c(Cl)cccc1Cl` [Example I-52, {4-[6-Amino-5-(2,6-dichloro-benzyloxy)-pyridin-3-yl]-phenyl}-{(2S)-2-[(3R)-3-hydroxy-pyrrolidin-1-ylmethyl]-pyrrolidin-1-yl}-methanone], 0.53 µM.
With `CC(Oc1nc(-c2cccc(C(=O)NCCCN3CCCC3)c2)cnc1N)c1c(Cl)ccc(F)c1Cl` (stereo not drawn) [II-91, 3-{5-Amino-6-[1-(2,6-dichloro-3-fluoro-phenyl)-ethoxy]-pyrazin-2-yl}-N-(3-pyrrolidin-1-yl-propyl)-benzamide], the IC50 was found to be 0.15 µM.
`Nc1ncc(-c2ccc(O)cc2)cc1OCc1ccccc1Cl` [Example I-133, 4-[6-Amino-5-(2-chloro-benzyloxy)-pyridin-3-yl]-phenol]: the IC50 was 13.8 µM.
In the case of `Nc1ncc(-c2ccc(NS(=O)(=O)CCN3CC[C@@H](O)C3)cc2)nc1OCc1c(F)ccc(F)c1Cl` [II-13, 2-[(3R)-3-Hydroxy-pyrrolidin-1-yl]-ethanesulfonic acid {4-[5-amino-6-(2-chloro-3,6-difluoro-benzyloxy)-pyrazin-2-yl]-phenyl}-amide], the IC50 stood at 1.59 µM.
Consider `Nc1ncc(-c2ccc3[nH]cc(CN4CCCCC4)c3c2)cc1OCc1c(F)ccc(F)c1Cl` [Example I-73, 3-(2-Chloro-3,6-difluoro-benzyloxy)-5-(3-piperidin-1-ylmethyl-1H-indol-5-yl)-pyridin-2-ylamine], for which the IC50 was determined as 0.74 µM.
As to `CC(Oc1nc(-c2cccc(C(=O)O)c2)cnc1N)c1c(Cl)ccc(F)c1Cl` (stereo not drawn) [II-83, 3-{5-amino-6-[1-(2,6-dichloro-3-fluoro-phenyl)-ethoxy]-pyrazin-2-yl}benzoic acid], the IC50 was 1.36 µM.
With `CN(C)[C@H]1CCN(C(=O)c2ccc(-c3cnc(N)c(OCc4ccccc4Cl)c3)cc2)C1` [Example I-153, {4-[6-Amino-5-(2-chloro-benzyloxy)-pyridin-3-yl]-phenyl}-[(3S)-3-dimethylamino-pyrrolidin-1-yl]-methanone], the IC50 stood at 12.7 µM.
For the compound `Nc1ncc(Br)nc1OCc1c(F)ccc(F)c1Cl` [II(b), 5-Bromo-3-(2-chloro-3,6-difluoro-benzyloxy)-pyrazin-2-ylamine], the half-maximal inhibitory concentration (IC50) is more than 20 µM.
The same measure, in the same setting: with `C[C@@H]1CN(C(=O)c2ccc(-c3cnc(N)c(OCc4c(F)ccc(F)c4Cl)n3)s2)C[C@H](C)N1` [II-196, {5-[5-Amino-6-(2-chloro-3,6-difluoro-benzyloxy)-pyrazin-2-yl]-thiophen-2-yl}-((3R,5S)-3,5-dimethyl-piperazin-1-yl)-methanone] the figure was 0.55 µM; with `N#Cc1ccccc1COc1cc(-c2ccc(C(=O)N3CC[C@H](N)C3)cc2)cnc1N` [Example I-164], 2.05 µM.
As to `CN1CCN(C(=O)c2ccc(-c3cnc(N)c(OCc4ccc(Cl)cc4Cl)c3)cc2)CC1` [Example I-177, {4-[6-Amino-5-(2,4-dichloro-benzyloxy)-pyridin-3-yl]-phenyl}-(4-methyl-piperazin-1-yl)-methanone], the IC50 came to 0.79 µM.
The same measure, in the same setting: with `Nc1ncc(-c2ccc(OCCN3CCOCC3)cc2)cc1OCc1cccc([N+](=O)[O-])c1` [Example I-106, 5-[4-(2-morpholin-4-yl-ethoxy)-phenyl]-3-(3-nitro-benzyloxy)-pyridin-2-ylamine] the figure was 12.6 µM.
As to `CC(Oc1nc(-c2cccc(C(=O)NCCCN3CCCC3)c2)cnc1N)c1c(Cl)ccc(F)c1Cl` (stereo not drawn) [II-96, 3-{5-Amino-6-[1-(2,6-dichloro-3-fluoro-phenyl)-ethoxy]-pyrazin-2-yl}-N-(3-pyrrolidin-1-yl-propyl)-benzamide], the IC50 was determined as 0.15 µM.
Take `Nc1ncc(-c2ccc(C(=O)N3CCC[C@H]3CN3CCCC3)cc2)cc1OCc1c(F)cccc1F` [Example I-123, {4-[6-Amino-5-(2,6-difluoro-benzyloxy)-pyridin-3-yl]-phenyl}-[(2S)-2-pyrrolidin-1-ylmethyl-pyrrolidin-1-yl]-methanone]: the IC50 amounted to 1.36 µM.
As for `C[C@@H]1CN(Cc2c[nH]c3ccc(-c4cnc(N)c(OCc5c(F)ccc(F)c5Cl)c4)cc23)C[C@H](C)O1` [Example I-71, 3-(2-Chloro-3,6-difluoro-benzyloxy)-5-[3-(2,6-dimethyl-morpholin-4-ylmethyl)-1H-indol-5-yl]-pyridin-2-ylamine], the half-inhibitory concentration (IC50) was 2.71 µM.
Turning to `CN1CCN(C(=O)c2cccc(-c3cnc(N)c(OCc4cccc(F)c4C(F)(F)F)n3)c2)CC1` [II-124, {3-[5-Amino-6-(3-fluoro-2-trifluoromethyl-benzylloxy)-pyrazin-2-yl]-phenyl}-(4-methyl-piperazin-1-yl)-methanone], the IC50 was 0.23 µM.
Regarding `Nc1ncc(-c2ccc(C(=O)N3CCN(C4CC4)CC3)cc2)cc1OCc1c(Cl)cccc1Cl` [Example I-48, {4-[6-Amino-5-(2,6-dichloro-benzyloxy)-pyridin-3-yl]-phenyl}-(4-cyclopropyl-piperazin-1-yl)-methanone], the IC50 was 1.67 µM.
On to `Nc1ncc(-c2ccc3[nH]cc(CN4CCOCC4)c3c2)cc1OCc1c(Cl)cccc1Cl` [Example I-61, 3-(2,6-Dichloro-benzyloxy)-5-(3-morpholin-4-ylmethyl-1H-indol-5-yl)-pyridin-2-ylamine], for which the IC50 was 1.19 µM.
`Nc1ncc(-c2ccc(C(=O)N3CCC[C@@H]3CN3CCCC3)cc2)nc1OCc1c(Cl)cccc1Cl` [II-7, {4-[5-Amino-6-(2,6-dichloro-benzyloxy)-pyrazin-2-yl]-phenyl)[(2R)-2-pyrrolidin-1-ylmethyl-pyrrolidin-1-yl]-methanone]: the IC50 came to 0.24 µM.
With `Nc1ncc(-c2cccc(NS(=O)(=O)CCN3CCCCC3)c2)nc1OCc1c(F)ccc(F)c1Cl` [II-24, 2-Piperidin-1-yl-ethanesulfonic acid {3-[5-amino-6-(2-chloro-3,6-difluoro-benzyloxy)-pyrazin-2-yl]-phenyl}-amide], the IC50 was 3.5 µM.
